Data taken from article PMC11491004, “CHF6523 data suggest that the phosphoinositide 3-kinase delta isoform is not a suitable target for the management of COPD” (Respiratory Research, 2024).

Columns and labels:
[1] = test system: target biomarkers in sputum; test: Target biomarkers of inflammation in induced sputum; assay type: in vivo, human; conditions: p < 0.05; with the exception of IL-5
Method: All assessment timings were based on the morning dose. Pre-dose on Days 1 and 28 of each treatment period, blood samples were taken for pharmacokinetic analyses, followed by forced oscillation (including slow vital capacity manoeuvres for inspiratory capacity [IC] and vital capacity [VC]), spirometry (forced expiratory volume in 1 s [FEV1] and forced vital capacity [FVC]), and the COPD Assessment Test (CAT). Blood samples were also taken up to 12 h post-dose on Days 1 and 28 for pharmacokinetic analyses, with blood samples for biomarker assessment pre-dose on Day 1 and 2 h post-dose on Day 28, and spirometry pre-dose on Days 20 and 24. […]
Fold-change from baseline in cell counts, target biomarkers in sputum and blood, and PIP3 were log-transformed and analysed using an analysis of covariance (ANCOVA) model, with treatment, patient, and period as fixed effects, and baseline value as covariate. Changes from baseline in spirometry, forced oscillation and CAT endpoints were analysed using a similar ANCOVA model, but without log transformation. Rescue medication data were analysed using an analysis of variance model, including treatment, period and patient as fixed effects. […]

[2] = Spirometry (pre-dose FEV1 and FVC); assay type: in vivo, human
Method: All assessment timings were based on the morning dose. Pre-dose on Days 1 and 28 of each treatment period, blood samples were taken for pharmacokinetic analyses, followed by forced oscillation (including slow vital capacity manoeuvres for inspiratory capacity [IC] and vital capacity [VC]), spirometry (forced expiratory volume in 1 s [FEV1] and forced vital capacity [FVC]), and the COPD Assessment Test (CAT). Blood samples were also taken up to 12 h post-dose on Days 1 and 28 for pharmacokinetic analyses, with blood samples for biomarker assessment pre-dose on Day 1 and 2 h post-dose on Day 28, and spirometry pre-dose on Days 20 and 24. Sputum was induced prior to each treatment period for baseline determination of biomarkers, and post-dose on Day 20 for collection of phosphatidylinositol (3,4,5)-trisphosphate (PIP3), and on Days 24 and 28 for collection of biomarkers.
Fold-change from baseline in cell counts, target biomarkers in sputum and blood, and PIP3 were log-transformed and analysed using an analysis of covariance (ANCOVA) model, with treatment, patient, and period as fixed effects, and baseline value as covariate. Changes from baseline in spirometry, forced oscillation and CAT endpoints were analysed using a similar ANCOVA model, but without log transformation. Rescue medication data were analysed using an analysis of variance model, including treatment, period and patient as fixed effects. Other data, including the proportion of days on which patients coughed and the cough VAS results, are presented descriptively only. Further details, including the transcriptomics, mass-spectrometry and Olink proteomics, bioinformatics and multi-omic data integration are in the supplement.

proteins in sputum = test: Tandem mass tag mass spectrometry proteomics in sputum; assay type: in vivo, human; conditions: FDR < 0.05, mixed effect modelling
Method: Sputum samples were weighed and solubilised with sodium dodecyl sulphate and dithiothreitol, and were incubated for 10 min at 95°C. First, quantification was performed by the Bradford Assay, with 50 μg of each sample digested with Trypsin following the S-trap micro protocol; 25 μg of each sample was dried, and reconstituted with TMT10plex (Thermo Scientific) following the manufacturer’s instructions. The 98 samples were divided into eleven TMT10plexes groups; 10 μg of each sample were combined, taking into account the peptide quantification, and after combining samples were desalted.
Samples were analysed with a Thermo Scientific Dionex Ultimate 3000 nano RSLC coupled to a Orbitrap Fusion Lumos mass spectrometer (Thermo Scientific) fitted with nanoESI source. Peptides were separated on a EasySpray (75 µm x 500 mm, 2 μm, 100Å) (Thermo Scientific) heated to 40°C at 300 nL/min. The mass spectrometer was operated in data-dependent acquisition (DDA) mode. […] For the MS3 analyses for TMT quantification, multiple fragment ions from the previous MS2 scan (SPS ions) were co- selected and fragmented by HCD.
Database searches were performed with Proteome Discoverer v2.4 software (Thermo Scientific) using Sequest HT search engine and UniProt Homo Sapiens (2023) and contaminants. […] TMT reporter ions intensities were used for protein quantification. […]

[3] = test system: ion channels implicated in the cough reflex; test: Electrophysiology in-vitro examination; assay type: biochemical
[4] = in vivo
Method: (§1) Safety and tolerability were evaluated throughout the study in terms of the occurrence of adverse events, blood chemistry, haematology and urinalysis, vital signs, and 12-lead electrocardiograms. […] Throughout the study, patients were permitted to use salbutamol as rescue medication, but not within 6 h prior to any spirometry assessment – any rescue medication intake was also captured in the daily diary.
(§2) The safety set, used in the analysis of all safety variables, was all randomised patients who received at least one dose of study drug. […] Given the cross-over design, the inclusion of patients in the analysis sets was defined on a per-period basis.

[5] = test system: eosinophilic/type-2 inflammation; conditions: series of preclinical studies in rat or mouse models of airway inflammation; cited from earlier work
[6] = Safety and tolerability: adverse events; conditions: safety set N = 42
Method: as §1, §2

In the case of `C[C@@H](c1oc(=O)c2ccccc2c1-c1cccc(CN2CCN(C)CC2)c1)n1nc(-c2cncc(O)c2)c2c(N)ncnc21` [CHF6523], the “CHF6523–placebo differences in target biomarkers in sputum” value [1] is reported as “no statistically significant”, the “Change from baseline in pre-dose FEV1: CHF6523–placebo difference (95% CI)” value ([2]; Day 20) is reported as −79 (−149, −9) mL and the “Change from baseline in pre-dose FVC: CHF6523–placebo difference (95% CI)” value ([2]; Day 20) is reported as −38 (−191, 116) mL. For the same compound, the “Change from baseline in pre-dose FEV1: CHF6523–placebo difference (95% CI)” value ([2]; Day 24) was −79 (−141, −17) mL, the “Change from baseline in pre-dose FVC: CHF6523–placebo difference (95% CI)” value ([2]; Day 24) was −25 (−170, 120) mL and the “Change from baseline in pre-dose FEV1: CHF6523–placebo difference (95% CI)” value ([2]; Day 28) was −146 (−242, −50) mL. The “Proteins significantly modulated by treatment, of the 413 evaluated” value (proteins in sputum) was “only BPI fold-containing family B member 1 (BPIFB1) was significantly modulated by treatment”, the “Impact on ion channels implicated in the cough reflex” value [3] was “no discernible impact” and the “Adverse events leading to study discontinuation” value [4] was 6 (14.3%) Patients (%). For the same compound, the “Adverse events leading to study discontinuation: Cough” value [4] was 5 (11.9%) Patients (%), the “Adverse events: Abnormal product taste” value [4] was 14 (33.3%) Patients (%) and the “Adverse events: COPD exacerbation” value [4] was 4 (9.5%) Patients (%). For the same compound, the “Adverse events: Chest discomfort” value [4] was 9 (21.4%) Patients (%), the “Adverse events: Dyspnoea” value [4] was 9 (21.4%) Patients (%) and the “Adverse events: Headache” value [4] was 5 (11.9%) Patients (%). The “Adverse events: Increased sputum” value [4] was 5 (11.9%) Patients (%), the “CHF6523–placebo differences in the other safety evaluations” value [4] was “no clinically relevant” and the Serious adverse events [4] was 2 (4.8%) Patients (%). The “Serious treatment-related adverse events” value [4] was 0 Patients (%), the Severe adverse events [4] was 11 (26.2%) Patients (%) and the “Severe adverse events: Cough” value [4] was 7 (16.7%) Patients (%). The Treatment-related adverse events [4] was 40 (95.2%) Patients (%), the “Treatment-related adverse events: Chest discomfort” value [4] was 9 (21.4%) Patients (%) and the “Treatment-related adverse events: Cough” value [4] was 40 (95.2%) Patients (%). For the same compound, the “Treatment-related adverse events: Dyspnoea” value [4] was 9 (21.4%) Patients (%), the “Treatment-related adverse events: Headache” value [4] was 3 (7.1%) Patients (%) and the “Treatment-related adverse events: Increased sputum” value [4] was 5 (11.9%) Patients (%). For the same compound, the “Treatment-related adverse events: Product taste abnormal” value [4] was 14 (33.3%) Patients (%), the “Inhibition of eosinophilic/type-2 inflammation” value [5] was “potent inhibition of eosinophilic/type-2 inflammation comparable to that of nemiralisib” and the “Adverse events leading to death” value [6] was 0 Patients (%). For the same compound, the “Adverse events: COVID-19” value [6] was 5 (11.9%) Patients (%).
